Drawing on patent publication US8658638B2, “Mineralocorticoid receptor antagonist and methods of use” (priority 2009, dated 2014), this text covers Ki for 1 molecule.

Test [1] deals with T1, human AR (androgen receptor) (Homo sapiens, UniProt P10275).
T1 construct: expressed in transfected cells; host or cells: HEK293 (293-AR lysate)
T1 sequence (P10275 1-920): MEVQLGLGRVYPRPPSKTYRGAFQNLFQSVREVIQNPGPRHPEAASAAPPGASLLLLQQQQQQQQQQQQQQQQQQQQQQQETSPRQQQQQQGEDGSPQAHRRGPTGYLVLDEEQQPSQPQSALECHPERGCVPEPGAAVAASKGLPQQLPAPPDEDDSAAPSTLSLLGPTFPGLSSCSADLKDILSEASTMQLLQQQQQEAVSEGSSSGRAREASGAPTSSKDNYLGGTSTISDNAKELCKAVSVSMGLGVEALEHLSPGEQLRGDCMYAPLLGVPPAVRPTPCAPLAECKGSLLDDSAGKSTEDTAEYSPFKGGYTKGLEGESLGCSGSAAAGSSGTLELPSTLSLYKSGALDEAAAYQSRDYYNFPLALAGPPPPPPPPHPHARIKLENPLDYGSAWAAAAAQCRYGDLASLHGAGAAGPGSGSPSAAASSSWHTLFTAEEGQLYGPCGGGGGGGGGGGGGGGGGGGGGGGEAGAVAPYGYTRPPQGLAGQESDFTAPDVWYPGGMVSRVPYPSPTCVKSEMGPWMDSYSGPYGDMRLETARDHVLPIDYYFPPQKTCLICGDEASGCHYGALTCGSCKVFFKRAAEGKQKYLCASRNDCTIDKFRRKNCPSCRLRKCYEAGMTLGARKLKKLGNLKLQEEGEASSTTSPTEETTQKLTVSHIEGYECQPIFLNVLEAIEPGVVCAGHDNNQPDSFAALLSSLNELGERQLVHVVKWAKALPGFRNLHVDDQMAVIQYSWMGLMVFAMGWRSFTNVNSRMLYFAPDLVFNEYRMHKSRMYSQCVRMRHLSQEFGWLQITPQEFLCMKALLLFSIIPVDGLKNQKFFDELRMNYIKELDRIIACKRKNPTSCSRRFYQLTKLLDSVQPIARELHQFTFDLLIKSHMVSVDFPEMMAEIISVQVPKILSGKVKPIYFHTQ
Briefly: Steroid nuclear hormone receptor binding assay, AR. Conditions: [3H]-methyltrienolone, HEK293 lysate overexpressing human AR. As to the method: (§1) Cell lysates from human embryonic kidney HEK293 cells overexpressing human MR (mineralocorticoid receptor), GR (glucocorticoid receptor), AR (androgen receptor), or PR (progesterone receptor) are used for receptor-ligand competition binding assays to determine Ki values.
(§2) Briefly, steroid receptor competition binding assays are run in a buffer containing 20 mM HEPES buffer (pH=7.6), 0.2 mM EDTA, 75 mM NaCl, 1.5 mM MgCl2, 20% glycerol, 20 mM sodium molybdate, 0.2 mM DTT (dithiothreitol), 20 μg/mL aprotinin and 20 μg/mL leupeptin (assay buffer). Typically, steroid receptor binding assays include radio-labeled ligands, such as 0.25 nM [^3H]-aldosterone for MR binding, 0.7 nM [^3H]-dexamethasone for GR binding, 0.36 nM [^3H]-methyltrienolone for AR binding, and 0.29 nM [^3H]-methyltrienolone for PR binding, and either 20 μg 293-MR lysate, 20 μg 293-GR lysate, 22 μg 293-AR lysate, or 40 μg 293-PR lysate per well. Assays are typically run in 96-well format. Competing test compounds are added at various concentrations ranging from about 0.01 nM to 10 μM. Non-specific binding is determined in the presence of 500 nM aldosterone for MR binding, 500 nM dexamethasone for GR binding, or 500 nM methyltrienolone for AR and PR binding. […] After an incubation of 2 hours, plates are read in a Wallac Microbeta counter. […]

In test [2] the target is T2, human PR (progesterone receptor) (Homo sapiens, UniProt P06401).
T2 construct: expressed in transfected cells; host or cells: HEK293 (293-PR lysate)
T2 sequence (P06401 1-933): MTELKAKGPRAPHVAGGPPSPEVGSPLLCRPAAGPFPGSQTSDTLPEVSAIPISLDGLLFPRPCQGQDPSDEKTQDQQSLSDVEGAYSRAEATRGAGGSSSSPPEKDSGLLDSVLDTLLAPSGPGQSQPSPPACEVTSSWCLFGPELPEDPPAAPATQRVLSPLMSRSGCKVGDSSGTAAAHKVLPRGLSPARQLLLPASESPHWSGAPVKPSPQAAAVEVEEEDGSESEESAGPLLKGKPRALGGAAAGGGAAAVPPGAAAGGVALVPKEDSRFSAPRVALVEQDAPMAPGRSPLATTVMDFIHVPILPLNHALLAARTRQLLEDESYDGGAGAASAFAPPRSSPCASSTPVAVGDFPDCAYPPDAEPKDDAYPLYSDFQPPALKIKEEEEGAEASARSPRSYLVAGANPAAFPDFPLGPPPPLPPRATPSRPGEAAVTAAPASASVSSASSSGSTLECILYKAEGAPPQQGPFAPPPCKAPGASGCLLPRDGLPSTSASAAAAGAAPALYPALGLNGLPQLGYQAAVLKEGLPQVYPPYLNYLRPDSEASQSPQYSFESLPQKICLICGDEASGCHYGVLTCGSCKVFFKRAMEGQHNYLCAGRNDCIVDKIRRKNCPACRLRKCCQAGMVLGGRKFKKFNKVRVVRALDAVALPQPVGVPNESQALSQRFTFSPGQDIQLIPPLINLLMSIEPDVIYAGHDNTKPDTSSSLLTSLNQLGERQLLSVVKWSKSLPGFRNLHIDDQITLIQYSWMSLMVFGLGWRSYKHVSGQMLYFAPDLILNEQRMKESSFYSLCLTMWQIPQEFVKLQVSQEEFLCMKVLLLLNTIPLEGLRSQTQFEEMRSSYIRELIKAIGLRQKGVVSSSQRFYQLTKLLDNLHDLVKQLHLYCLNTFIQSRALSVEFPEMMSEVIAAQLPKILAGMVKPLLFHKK
Briefly: Steroid nuclear hormone receptor binding assay, PR. Conditions: [3H]-methyltrienolone, HEK293 lysate overexpressing human PR. The protocol: as §1, §2

What is called Ki is a dissociation constant, usually derived from enzyme kinetics or from competition with a known ligand.

As for `O=c1[nH]c2cc(/C=C3\c4ccccc4COc4cc(F)ccc43)ccc2n1[C@@H]1C[C@@H]2COCCN2C1` [Compound (I), 5-((E)-(3-fluorodibenzo[b,e]oxepin-11(6H)-ylidene)methyl)-1-((7R,8aR)-hexahydro-1H-pyrrolo[2,1-c][1,4]oxazin-7-yl)-1H-benzo[d]imidazol-2(3H)-one], the figures for the Ki in test [1] and in test [2] were ~1170 nM and ~478 nM, respectively.
